From ChEMBL document CHEMBL1128259, “Ketomethylene and (cyanomethylene)amino pseudopeptide analogues of the C-terminal hexapeptide of neurotensin” (J Med Chem, 1995)
pIC50: −log10 of the molar value. Peptide text beside a SMILES is read from it. * marks the point of attachment. X2 = CC[C@@H](C)[C@H](CN[C@@H](Cc1ccccc1)C(=O)O)N*

Legend:
[1] = molecular target: T1, Neurotensin receptor type 1 (Rattus norvegicus, UniProt P20789); assay: IC50 was measured as binding to rat cortex membranes using [3H]- NT(neurotensin) as tracer
T1 sequence (P20789 whole entry): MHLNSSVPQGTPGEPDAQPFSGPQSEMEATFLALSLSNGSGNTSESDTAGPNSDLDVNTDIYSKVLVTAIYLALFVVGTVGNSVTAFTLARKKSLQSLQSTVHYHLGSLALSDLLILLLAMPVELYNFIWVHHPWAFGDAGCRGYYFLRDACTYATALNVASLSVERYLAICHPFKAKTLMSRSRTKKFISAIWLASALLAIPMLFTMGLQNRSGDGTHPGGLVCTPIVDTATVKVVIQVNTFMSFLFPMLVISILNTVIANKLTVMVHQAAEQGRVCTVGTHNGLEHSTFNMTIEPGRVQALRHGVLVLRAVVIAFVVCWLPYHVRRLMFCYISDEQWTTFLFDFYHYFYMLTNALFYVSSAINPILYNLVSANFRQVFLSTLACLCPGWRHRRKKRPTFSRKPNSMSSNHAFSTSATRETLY

[2] = molecular target: Neurotensin receptor type 1 (Rattus norvegicus) (UniProt P20789); assay: Relative potency at neurotensin receptor compared to neurotensin (NT8-13)
Chain of Neurotensin receptor type 1 (Rattus norvegicus) (P20789 whole entry): as above

[3] = molecular target: T1, Neurotensin receptor type 1; assay: IC50 was measured as binding to rat cortex membranes using [3H]- NT (neurotensin) as tracer

| Compound | pIC50 [1] | Relative potency [2] | pIC50 [3] |
| --- | --- | --- | --- |
| CC[C@H](C)[C@H](NC(=O)[C@H](Cc1ccc(O)cc1)NC(=O)[C@@H]1CCCN1C(=O)[C@H](CCCN=C(N)N)NC(=O)[C@@H](N)CCCN=C(N)N)C(=O)C[C@H](Cc1ccccc1)C(=O)O (stereo in doubt; 13a) [listing 1 of 2 here] | 6.92 | – | – |
| CC[C@H](C)[C@H](NC(=O)[C@H](Cc1ccc(O)cc1)NC(=O)[C@@H]1CCCN1C(=O)[C@H](CCCN=C(N)N)NC(=O)[C@@H](N)CCCN=C(N)N)C(=O)C[C@H](Cc1ccccc1)C(=O)O (stereo in doubt; 13c) [listing 1 of 2 here] | 5.82 | – | – |
| CC[C@H](C)[C@H](NC(=O)[C@H](Cc1ccc(O)cc1)NC(=O)[C@@H]1CCCN1C(=O)[C@H](CCCN=C(N)N)NC(=O)[C@@H](N)CCCN=C(N)N)C(=O)C[C@H](Cc1ccccc1)C(=O)O (mixture of isomers) [listing 1 of 2 here] | – | 1.1 | – |
| CC[C@@H](C)[C@H](CN[C@@H](Cc1ccccc1)C(=O)O)NC(=O)[C@H](Cc1ccc(O)cc1)NC(=O)[C@@H]1CCCN1C(=O)[C@H](CCCNC(=N)N)NC(=O)[C@@H](N)CCCNC(=N)N (H-RRPY-X2) | 5.10 | – | – |
| CC[C@H](C)[C@H](NC(=O)[C@H](Cc1ccc(O)cc1)NC(=O)[C@@H]1CCCN1C(=O)[C@H](CCCN=C(N)N)NC(=O)[C@@H](N)CCCN=C(N)N)C(=O)C[C@H](Cc1ccccc1)C(=O)O (mixture of isomers) [listing 2 of 2 here] | 6.05 | – | – |
| CC[C@@H](C)[C@H](CN[C@@H](Cc1ccccc1)C(=O)O)NC(=O)[C@H](Cc1ccc(O)cc1)NC(=O)[C@@H]1CCCN1C(=O)[C@H](CCCN=C(N)N)NC(=O)[C@@H](N)CCCN=C(N)N (H-RRPY-X2) | – | 0.1 | – |
| CC[C@H](C)[C@H](NC(C#N)[C@@H](Cc1ccc(O)cc1)NC(=O)[C@@H]1CCCN1C(=O)[C@H](CCCN=C(N)N)NC(=O)[C@@H](N)CCCN=C(N)N)C(=O)N[C@@H](CC(C)C)C(=O)O (some centres undefined) | – | 5.5 | 6.74 |
| CC(C)C[C@H](NC(=O)C(CC(=O)[C@H](Cc1ccc(O)cc1)NC(=O)[C@@H]1CCCN1C(=O)[C@H](CCCNC(=N)N)NC(=O)[C@@H](N)CCCNC(=N)N)Cc1ccccc1)C(=O)O (single isomer, unassigned) | 7.82 | 66.6 | – |
| CC[C@H](C)[C@H](NC(=O)[C@H](Cc1ccc(O)cc1)NC(=O)[C@@H]1CCCN1C(=O)[C@H](CCCN=C(N)N)NC(=O)[C@@H](N)CCCN=C(N)N)C(=O)C[C@H](Cc1ccccc1)C(=O)O (stereo in doubt; 13b) [listing 1 of 2 here] | 5.92 | – | – |
| CC[C@@H](C)[C@@H](NC[C@H](Cc1ccc(O)cc1)NC(=O)[C@@H]1CCCN1C(=O)[C@H](CCCN=C(N)N)NC(=O)[C@@H](N)CCCN=C(N)N)C(=O)N[C@@H](CC(C)C)C(=O)O | – | 0.1 | – |
| CC[C@H](C)[C@H](NC[C@H](Cc1ccc(O)cc1)NC(=O)[C@@H]1CCCN1C(=O)[C@H](CCCN=C(N)N)NC(=O)[C@@H](N)CCCN=C(N)N)C(=O)N[C@@H](CC(C)C)C(=O)O | 5.20 | – | – |
| CC[C@H](C)[C@H](NC(=O)[C@H](Cc1ccc(O)cc1)NC(=O)[C@@H]1CCCN1C(=O)[C@H](CCCN=C(N)N)NC(=O)[C@@H](N)CCCN=C(N)N)C(=O)C[C@H](Cc1ccccc1)C(=O)O (stereo in doubt; 13b) [listing 2 of 2 here] | – | 0.8 | – |
| CC[C@H](C)[C@H](NC(=O)[C@H](Cc1ccc(O)cc1)NC(=O)[C@@H]1CCCN1C(=O)[C@H](CCCN=C(N)N)NC(=O)[C@@H](N)CCCN=C(N)N)C(=O)C[C@H](Cc1ccccc1)C(=O)O (stereo in doubt; 13c) [listing 2 of 2 here] | – | 0.6 | – |
| CC(C)C[C@H](NC(=O)[C@H](Cc1ccccc1)NC(=O)[C@H](Cc1ccc(O)cc1)NC(=O)[C@@H]1CCCN1C(=O)[C@H](CCCN=C(N)N)NC(=O)[C@@H](N)CCCN=C(N)N)C(=O)O | 8.10 | – | – |
| CC(C)C[C@H](NC(=O)[C@@H](Cc1ccccc1)NC(=O)[C@H](Cc1ccc(O)cc1)NC(=O)[C@@H]1CCCN1C(=O)[C@H](CCCN=C(N)N)NC(=O)[C@@H](N)CCCN=C(N)N)C(=O)O | – | 105 | – |
| CC(C)C[C@H](NC(=O)[C@H](CC(=O)[C@H](Cc1ccc(O)cc1)NC(=O)[C@@H]1CCCN1C(=O)[C@H](CCCNC(=N)N)NC(=O)[C@@H](N)CCCNC(=N)N)Cc1ccccc1)C(=O)O | 5.92 | 0.8 | – |
| CC[C@H](C)[C@H](NC(=O)[C@H](Cc1ccc(O)cc1)NC(=O)[C@@H]1CCCN1C(=O)[C@H](CCCNC(=N)N)NC(=O)[C@@H](N)CCCNC(=N)N)C(=O)N[C@@H](Cc1ccccc1)C(=O)O | 8.30 | – | – |
| CC[C@H](C)[C@H](NC(C#N)[C@H](Cc1ccc(O)cc1)NC(=O)C1CCCN1C(=O)[C@H](CCCN=C(N)N)NC(=O)[C@@H](N)CCCN=C(N)N)C(=O)N[C@@H](CC(C)C)C(=O)O (some centres undefined) | – | 0.1 | 5.00 |
| CC[C@@H](C)[C@@H](NC(=O)[C@H](Cc1ccc(O)cc1)NC(=O)[C@@H]1CCCN1C(=O)[C@H](CCCN=C(N)N)NC(=O)[C@@H](N)CCCN=C(N)N)C(=O)N[C@@H](Cc1ccccc1)C(=O)O | – | 200 | – |
| CC[C@H](C)[C@H](NC(=O)[C@H](Cc1ccc(O)cc1)NC(=O)[C@@H]1CCCN1C(=O)[C@H](CCCN=C(N)N)NC(=O)[C@@H](N)CCCN=C(N)N)C(=O)C[C@H](Cc1ccccc1)C(=O)O (stereo in doubt; 13a) [listing 2 of 2 here] | – | 8.3 | – |
